The results in this text go back to US11370798B2 (Vertex Pharmaceuticals Incorporated, priority 2012, dated 2022).

The test system of this test is HCT116 colorectal cancer cells. Nature of the test: Cisplatin sensitization assay (96 h cell viability MTS).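 Note: Test-compound concentration that lowers the Cisplatin IC50 by a set fold.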 The format is cell-based. As to conditions: compound and Cisplatin added simultaneously, Cisplatin sensitization value. A digest of the protocol:
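Compound and cisplatin added together as a full matrix of 2-fold serial dilutions from a top final concentration of 10 μM; cells incubated 96 h at 37° C, 5% CO2. Viability then read by MTS after 1 h further incubation; sensitization value reported in μM bins.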
Take `CC1(S(C)(=O)=O)CCN(c2ccncc2NC(=O)c2c(N)nn3cc(F)cnc23)CC1` [I-N-243, 2-amino-6-fluoro-N-(4-(4-methyl-4-(methylsulfonyl)piperidin-1-yl)pyridin-3-yl)pyrazolo[1,5-a]pyrimidine-3-carboxamide]: the “Cisplatin Sensitization Assay” value is recorded as “+++ (Cisplatin sensitization value of <0.02 μM)”. The result for `Nc1nn2cc(F)cnc2c1C(=O)Nc1cnccc1N1CCN2C(=O)CCCC2C1` (centres unmarked) [I-N-244, 2-amino-6-fluoro-N-(4-(6-oxohexahydro-1H-pyrido[1,2-a]pyrazin-2(6H)-yl)pyridin-3-yl)pyrazolo[1,5-a]pyrimidine-3-carboxamide] reads “+++ (Cisplatin sensitization value of <0.02 μM)”; that for `CC(C)N1CCN2CCN(c3ccncc3NC(=O)c3c(N)nn4cc(F)cnc34)CC2C1=O` (centres unmarked) [I-N-245, 2-amino-6-fluoro-N-(4-(8-isopropyl-9-oxohexahydro-1H-pyrazino[1,2-a]pyrazin-2(6H)-yl)pyridin-3-yl)pyrazolo[1,5-a]pyrimidine-3-carboxamide], “++ (Cisplatin sensitization value>0.02 μM but <0.2 μM)”.

Take `Nc1nn2cc(F)cnc2c1C(=O)Nc1cncc(F)c1N1CCCC1` [I-N-246, 2-amino-6-fluoro-N-(5-fluoro-4-(pyrrolidin-1-yl)pyridin-3-yl)pyrazolo[1,5-a]pyrimidine-3-carboxamide]: the “Cisplatin Sensitization Assay” value was “++ (Cisplatin sensitization value>0.02 μM but <0.2 μM)”. The result for `Nc1nn2cc(F)cnc2c1C(=O)Nc1cnccc1N1CCN2[C@@H](CCS2(=O)=O)C1` [I-N-247, (S)-2-amino-N-(4-(1,1-dioxidotetrahydro-2H-isothiazolo[2,3-a]pyrazin-5(3H)-yl)pyridin-3-yl)-6-fluoropyrazolo[1,5-a]pyrimidine-3-carboxamide] reads “+++ (Cisplatin sensitization value of <0.02 μM)”. Turning to `Nc1nn2cc(F)cnc2c1C(=O)Nc1cncc(F)c1N1CCN2C(=O)OC[C@@H]2C1` [I-N-248, (S)-2-amino-6-fluoro-N-(5-fluoro-4-(3-oxotetrahydro-1H-oxazolo[3,4-a]pyrazin-7(3H)-yl)pyridin-3-yl)pyrazolo[1,5-a]pyrimidine-3-carboxamide], the “Cisplatin Sensitization Assay” value was “++ (Cisplatin sensitization value>0.02 μM but <0.2 μM)”.

As for `Nc1nn2cc(F)cnc2c1C(=O)Nc1cnccc1N1CCN(C(=O)C2COC2)CC1` [I-N-249], the “Cisplatin Sensitization Assay” value was “+++ (Cisplatin sensitization value of <0.02 μM)”.

As for `Nc1nn2cc(F)cnc2c1C(=O)Nc1cncc(F)c1N1CCS(=O)(=O)CC1` [I-N-250, 2-amino-N-(4-(1,1-dioxidothiomorpholino)-5-fluoropyridin-3-yl)-6-fluoropyrazolo[1,5-a]pyrimidine-3-carboxamide], the “Cisplatin Sensitization Assay” value is reported as “++ (Cisplatin sensitization value>0.02 μM but <0.2 μM)”. The result for `CC(=O)N1CC2(CCN(c3ccncc3NC(=O)c3c(N)nn4cc(F)cnc34)CC2)C1` [I-N-251, N-(4-(2-acetyl-2,7-diazaspiro[3.5]nonan-7-yl)pyridin-3-yl)-2-amino-6-fluoropyrazolo[1,5-a]pyrimidine-3-carboxamide] reads “+++ (Cisplatin sensitization value of <0.02 μM)”; that for `CC1(C)CN(c2ccncc2NC(=O)c2c(N)nn3cc(F)cnc23)CCS1(=O)=O` [I-N-252, 2-amino-N-(4-(2,2-dimethyl-1,1-dioxidothiomorpholino)pyridin-3-yl)-6-fluoropyrazolo[1,5-a]pyrimidine-3-carboxamide], “+++ (Cisplatin sensitization value of <0.02 μM)”. The result for `Nc1nn2cc(F)cnc2c1C(=O)Nc1cnccc1N1CCCC2(COC2)C1` [I-N-253, N-(4-(2-oxa-6-azaspiro[3.5]nonan-6-yl)pyridin-3-yl)-2-amino-6-fluoropyrazolo[1,5-a]pyrimidine-3-carboxamide] reads “+++ (Cisplatin sensitization value of <0.02 μM)”.

In the case of `Nc1nn2cc(F)cnc2c1C(=O)Nc1cnccc1N1CCC2(CCNC2)CC1` [I-N-255, N-(4-(2,8-diazaspiro[4.5]decan-8-yl)pyridin-3-yl)-2-amino-6-fluoropyrazolo[1,5-a]pyrimidine-3-carboxamide], the “Cisplatin Sensitization Assay” value was “++ (Cisplatin sensitization value>0.02 μM but <0.2 μM)”. The result for `Cc1nnc(N2CCN(c3ccncc3NC(=O)c3c(N)nn4cc(F)cnc34)CC2)o1` [I-N-256, 2-amino-6-fluoro-N-(4-(4-(5-methyl-1,3,4-oxadiazol-2-yl)piperazin-1-yl)pyridin-3-yl)pyrazolo[1,5-a]pyrimidine-3-carboxamide] reads “++ (Cisplatin sensitization value>0.02 μM but <0.2 μM)”. Consider `CC(=O)N1CCC2(CCN(c3ccncc3NC(=O)c3c(N)nn4cc(F)cnc34)CC2)C1` [I-N-257, N-(4-(2-acetyl-2,8-diazaspiro[4.5]decan-8-yl)pyridin-3-yl)-2-amino-6-fluoropyrazolo[1,5-a]pyrimidine-3-carboxamide], for which the “Cisplatin Sensitization Assay” value is reported as “+++ (Cisplatin sensitization value of <0.02 μM)”. The value for `Nc1nn2cc(F)cnc2c1C(=O)Nc1cnccc1N1CCN2C(=O)CC[C@@H]2C1` [I-N-258, (R)-2-amino-6-fluoro-N-(4-(6-oxohexahydropyrrolo[1,2-a]pyrazin-2(1H)-yl)pyridin-3-yl)pyrazolo[1,5-a]pyrimidine-3-carboxamide] was “++ (Cisplatin sensitization value>0.02 μM but <0.2 μM)”. The result for `Cn1ccc2cncc(NC(=O)c3c(N)nn4cc(F)cnc34)c21` [I-N-259, 2-amino-6-fluoro-N-(1-methyl-1H-pyrrolo[3,2-c]pyridin-7-yl)pyrazolo[1,5-a]pyrimidine-3-carboxamide] reads “+ (Cisplatin sensitization value>0.2 μM but <5 μM)”.

Turning to `Cc1nonc1N1CCN(c2ccncc2NC(=O)c2c(N)nn3cc(F)cnc23)CC1` [I-N-260, 2-amino-6-fluoro-N-(4-(4-(4-methyl-1,2,5-oxadiazol-3-yl)piperazin-1-yl)pyridin-3-yl)pyrazolo[1,5-a]pyrimidine-3-carboxamide], the “Cisplatin Sensitization Assay” value was “+++ (Cisplatin sensitization value of <0.02 μM)”. The result for `COC(=O)N1CCN(c2c(F)cncc2NC(=O)c2c(N)nn3cc(F)cnc23)CC1` [I-N-261, methyl-4-(3-(2-amino-6-fluoropyrazolo[1,5-a]pyrimidine-3-carboxamido)-5-fluoropyridin-4-yl)piperazine-1-carboxylate] reads “+++ (Cisplatin sensitization value of <0.02 μM)”; that for `CC(=O)N1CCCC12CCN(c1ccncc1NC(=O)c1c(N)nn3cc(F)cnc13)CC2` [I-N-262, N-(4-(1-acetyl-1,8-diazaspiro[4.5]decan-8-yl)pyridin-3-yl)-2-amino-6-fluoropyrazolo[1,5-a]pyrimidine-3-carboxamide], “+++ (Cisplatin sensitization value of <0.02 μM)”. The result for `Cc1nncn1-c1ccncc1NC(=O)c1c(N)nn2cc(F)cnc12` [I-N-263, 2-amino-6-fluoro-N-(4-(3-methyl-4H-1,2,4-triazol-4-yl)pyridin-3-yl)pyrazolo[1,5-a]pyrimidine-3-carboxamide] reads “+ (Cisplatin sensitization value>0.2 μM but <5 μM)”. The value for `Nc1nn2cc(F)cnc2c1C(=O)Nc1cnccc1N1CCCCCC1` [I-N-264, 2-amino-N-(4-(azepan-1-yl)pyridin-3-yl)-6-fluoropyrazolo[1,5-a]pyrimidine-3-carboxamide] was “+ (Cisplatin sensitization value>0.2 μM but <5 μM)”; that for `Cc1nnc(C2CCN(c3ccncc3NC(=O)c3c(N)nn4cc(F)cnc34)CC2)o1` [I-N-265, 2-amino-6-fluoro-N-(4-(4-(5-methyl-1,3,4-oxadiazol-2-yl)piperidin-1-yl)pyridin-3-yl)pyrazolo[1,5-a]pyrimidine-3-carboxamide] was “++ (Cisplatin sensitization value>0.02 μM but <0.2 μM)”; that for `COC1CCN(c2ccncc2NC(=O)c2c(N)nn3cc(F)cnc23)CC1` [I-N-266, 2-amino-6-fluoro-N-(4-(4-methoxypiperidin-1-yl)pyridin-3-yl)pyrazolo[1,5-a]pyrimidine-3-carboxamide] was “+++ (Cisplatin sensitization value of <0.02 μM)”. `CN(C)CC1CCN(c2ccncc2NC(=O)c2c(N)nn3cc(F)cnc23)CC1` [I-N-267, 2-amino-N-(4-(4-((dimethylamino)methyl)piperidin-1-yl)pyridin-3-yl)-6-fluoropyrazolo[1,5-a]pyrimidine-3-carboxamide]: the “Cisplatin Sensitization Assay” value is “+++ (Cisplatin sensitization value of <0.02 μM)”. The result for `Nc1nn2cc(F)cnc2c1C(=O)Nc1cnccc1N1CCC(c2nnco2)CC1` [I-N-268, N-(4-(4-(1,3,4-oxadiazol-2-yl)piperidin-1-yl)pyridin-3-yl)-2-amino-6-fluoropyrazolo[1,5-a]pyrimidine-3-carboxamide] reads “+++ (Cisplatin sensitization value of <0.02 μM)”. The result for `Cc1ncn(-c2ccncc2NC(=O)c2c(N)nn3cc(F)cnc23)c1C` [I-N-269, 2-amino-N-(4-(4,5-dimethyl-1H-imidazol-1-yl)pyridin-3-yl)-6-fluoropyrazolo[1,5-a]pyrimidine-3-carboxamide] reads “++ (Cisplatin sensitization value>0.02 μM but <0.2 μM)”. The result for `Nc1nn2cc(F)cnc2c1C(=O)Nc1cncc(F)c1N1CCCCC1` [I-N-270, 2-amino-6-fluoro-N-(5-fluoro-4-(piperidin-1-yl)pyridin-3-yl)pyrazolo[1,5-a]pyrimidine-3-carboxamide] reads “+++ (Cisplatin sensitization value of <0.02 μM)”; that for `Nc1nn2cc(F)cnc2c1C(=O)Nc1cnccc1N1CCC(S(=O)(=O)N2CCC2)CC1` [I-N-271, 2-amino-N-(4-(4-(azetidin-1-ylsulfonyl)piperidin-1-yl)pyridin-3-yl)-6-fluoropyrazolo[1,5-a]pyrimidine-3-carboxamide], “+++ (Cisplatin sensitization value of <0.02 μM)”; that for `CN1CCOC2(CCN(c3c(F)cncc3NC(=O)c3c(N)nn4cc(F)cnc34)CC2)C1` [I-N-272, 2-amino-6-fluoro-N-(5-fluoro-4-(4-methyl-1-oxa-4,9-diazaspiro[5.5]undecan-9-yl)pyridin-3-yl)pyrazolo[1,5-a]pyrimidine-3-carboxamide], “+++ (Cisplatin sensitization value of <0.02 μM)”.
